Assay results reported in ChEMBL document CHEMBL1136277, “(R)-3-(N-methylpyrrolidin-2-ylmethyl)-5-(1,2,3,6-tetrahydropyridin-4-yl)-1H-indole derivatives as high affinity h5-HT1B/1D ligands” (Bioorg Med Chem Lett, 2003).

What was measured:
[1] = target: 5-hydroxytryptamine receptor 1D (Homo sapiens, UniProt P28221); assay: Binding affinity towards cloned human 5-hydroxytryptamine 1D receptor
[2] = target: T1, 5-hydroxytryptamine receptor 1B (Homo sapiens, UniProt P28222); assay: Selectivity ratio against cloned human 5-HT1B receptor to that of h5-HT1D receptor
[3] = target: T1, 5-hydroxytryptamine receptor 1B; assay: Binding affinity towards cloned human 5-hydroxytryptamine 1B receptor

T1 sequence (P28222 whole entry): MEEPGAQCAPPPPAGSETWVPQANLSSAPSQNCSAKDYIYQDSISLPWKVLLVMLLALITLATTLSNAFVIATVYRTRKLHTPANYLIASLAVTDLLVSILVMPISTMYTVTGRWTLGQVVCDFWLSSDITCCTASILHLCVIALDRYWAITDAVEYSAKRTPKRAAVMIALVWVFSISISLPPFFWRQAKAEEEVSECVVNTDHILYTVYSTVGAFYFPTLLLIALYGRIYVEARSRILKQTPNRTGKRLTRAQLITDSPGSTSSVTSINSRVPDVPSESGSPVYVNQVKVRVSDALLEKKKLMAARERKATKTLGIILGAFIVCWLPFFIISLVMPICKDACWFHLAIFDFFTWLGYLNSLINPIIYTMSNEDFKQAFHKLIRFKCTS
Chain of 5-hydroxytryptamine receptor 1D (P28221 whole entry): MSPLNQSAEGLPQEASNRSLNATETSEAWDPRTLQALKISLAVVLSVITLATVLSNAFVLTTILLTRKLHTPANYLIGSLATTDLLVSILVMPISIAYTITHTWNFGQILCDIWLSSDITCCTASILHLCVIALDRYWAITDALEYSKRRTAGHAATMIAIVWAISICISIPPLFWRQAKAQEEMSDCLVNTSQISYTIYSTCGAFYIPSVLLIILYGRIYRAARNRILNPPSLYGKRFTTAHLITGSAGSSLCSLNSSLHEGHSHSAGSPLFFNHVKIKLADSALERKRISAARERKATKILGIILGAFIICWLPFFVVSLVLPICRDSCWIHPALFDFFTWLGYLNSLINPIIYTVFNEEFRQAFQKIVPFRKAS

SMILES	Ki [1]	Selectivity [2]	Ki [3]
CN1CCC[C@@H]1Cc1c[nH]c2ccc(C3=CCN(C(=O)NC4CCCCC4)CC3)cc12	3 nM	4.6	14 nM
Cc1ccc(NC(=O)N2CC=C(c3ccc4[nH]cc(C[C@H]5CCCN5C)c4c3)CC2)cc1	0.31 nM	9.7	3 nM
COc1ccc(S(=O)(=O)N2CC=C(c3ccc4[nH]cc(C[C@H]5CCCN5C)c4c3)CC2)cc1	0.76 nM	19	14 nM
CN1CCC[C@@H]1Cc1c[nH]c2ccc(C3=CCN(/C(S)=N/C45C[C@H]6C[C@@H](C4)C[C@@H](C5)C6)CC3)cc12	5.6 nM	7	39 nM
CN1CCC[C@@H]1Cc1c[nH]c2ccc(C3=CCN(C(=O)Nc4ccc(Cl)cc4)CC3)cc12	0.38 nM	10	3.8 nM
CN1CCC[C@@H]1Cc1c[nH]c2ccc(C3=CCN(C(=S)NC4CCCCC4)CC3)cc12	2 nM	–	13 nM
CN1CCC[C@@H]1Cc1c[nH]c2ccc(C3=CCN(/C(S)=N/c4ccccc4)CC3)cc12	–	8.5	–
CN1CCC[C@@H]1Cc1c[nH]c2ccc(C3=CCN(C(=S)Nc4ccccc4)CC3)cc12	0.68 nM	–	5.8 nM
Cc1ccc(NC(=S)N2CC=C(c3ccc4[nH]cc(C[C@H]5CCCN5C)c4c3)CC2)cc1	0.38 nM	–	1.5 nM
CN(C)CCc1c[nH]c2ccc(C3=CCN(C)CC3)cc12	8 nM	–	610 nM
CN1CCC[C@@H]1Cc1c[nH]c2ccc(C3=CCN(S(=O)(=O)c4cccc5ccccc45)CC3)cc12	0.88 nM	26	23 nM
CN1CCC[C@@H]1Cc1c[nH]c2ccc(C3=CCN(/C(S)=N/c4cccc5ccccc45)CC3)cc12	0.7 nM	4.6	3.2 nM
CN1CCC[C@@H]1Cc1c[nH]c2ccc(C3=CCN(/C(S)=N/c4ccc(Cl)cc4)CC3)cc12	0.56 nM	2.7	1.5 nM
CN1CCC[C@@H]1Cc1c[nH]c2ccc(C3=CCN(/C(S)=N/C4CCCCC4)CC3)cc12	–	6.3	–
COc1ccc(NC(=O)N2CC=C(c3ccc4[nH]cc(C[C@H]5CCCN5C)c4c3)CC2)cc1	0.42 nM	10	4.2 nM
Cc1ccc(S(=O)(=O)N2CC=C(c3ccc4[nH]cc(C[C@H]5CCCN5C)c4c3)CC2)cc1	0.8 nM	21	17 nM
COc1ccc(NC(=S)N2CC=C(c3ccc4[nH]cc(C[C@H]5CCCN5C)c4c3)CC2)cc1	0.46 nM	5.2	2.4 nM
CN1CCC[C@@H]1Cc1c[nH]c2ccc(C3=CCN(C(=O)NC45C[C@H]6C[C@@H](C4)C[C@@H](C5)C6)CC3)cc12	4 nM	2.8	11 nM
CN1CCC[C@@H]1Cc1c[nH]c2ccc(C3=CCN(C(=O)Nc4ccccc4)CC3)cc12	0.45 nM	11	4.8 nM
CN1CCC[C@@H]1Cc1c[nH]c2ccc(C3=CCN(C(=O)Nc4cccc5ccccc45)CC3)cc12	0.45 nM	8.4	3.8 nM
Cc1ccc(/N=C(\S)N2CC=C(c3ccc4[nH]cc(C[C@H]5CCCN5C)c4c3)CC2)cc1	–	3.9	–
